Values after ≈ are worked out from the molar mass of the structure shown. Read-outs that look alike come from different tables or passages of the source. Peptide text beside a SMILES is read from it.
Assays:
MRSA = type: cell-based, Staphylococcus aureus
Protocol: (§1) In certain embodiments the MIC assays are performed as described herein in the Examples. For each organism, the media and growth conditions utilized is detailed in Table 8.
(§2) In certain embodiments the MIC assays are performed as follows: For each organism, the media and growth conditions utilized is detailed in Table 8.

A. niger = type: cell-based, Aspergillus niger
Protocol: as §1, §2

T. rubrum = type: cell-based, Trichophyton rubrum
Protocol: as §1, §2

S. pneumoniae = type: cell-based, Streptococcus pneumoniae
Protocol: as §1, §2

S. epidermidis = type: cell-based
Protocol: as §1, §2

[1] = S. pneumoniae, TSB supplemented with 5% yeast extract, 37° C., 10% CO2, 10^6 CFU/ml

Row | Compound | MIC (MRSA) [µM] | MIC (A. niger) [µM] | MIC (S. pneumoniae) [µM] | MIC (S. pneumoniae; [1]) [µM] | also measured
1 | CC[C@H](C)[C@H](NC(=O)[C@H](C)NC(=O)[C@@H]1CCCN1C(=O)[C@H](Cc1ccccc1)NC(=O)[C@@H]1CCCN1C(=O)[C@H](CC(C)C)NC(=O)[C@@H](N)C(C)C)C(=O)N1CCC[C@H]1C(=O)N[C@@H](CC(C)C)C(=O)N[C@@H](CO)C(=O)N[C@@H](CCCNC(=N)N)C(=O)N[C@@H](CCCNC(=N)N)C(=O)N[C@@H](CCCNC(=N)N)C(=O)N[C@@H](C)C(=O)N[C@@H](CS)C(=O)N[C@H](C(=O)N[C@@H](C)C(=O)N[C@@H](C)C(=O)N1CCC[C@H]1C(=O)N[C@@H](CCCNC(=N)N)C(=O)N1CCC[C@H]1C(=O)N[C@@H](CCCNC(=N)N)C(=O)N[C@@H](CO)C(=O)N[C@@H](CCCNC(=N)N)C(=O)N[C@@H](CCC(N)=O)C(=O)N[C@@H](CCCNC(=N)N)C(=O)N[C@@H](C)C(=O)N[C@@H](CO)C(=O)O)C(C)C [PF-168] (H-VLPFPAIPLSRRRACVAAPRPRSRQRAS-OH; N-terminus and C-terminus assumed) | 50 (≈ 156 µg/mL) | 50 (≈ 156 µg/mL) |  |  | MIC (T. rubrum): 50 µM (≈ 156 µg/mL)
2 | CC[C@H](C)[C@H](NC(=O)[C@H](CC(C)C)NC(=O)[C@@H]1CCCN1C(=O)[C@@H]1CCCN1C(=O)[C@H](CCCCN)NC(=O)[C@@H](NC(=O)[C@H](Cc1ccc(O)cc1)NC(=O)[C@H](CC(C)C)NC(=O)[C@H](CO)NC(=O)[C@H](CCC(N)=O)NC(=O)[C@H](CCSC)NC(=O)[C@@H](N)C(C)C)C(C)C)C(=O)N[C@@H](CC(C)C)C(=O)N[C@H](C(=O)N[C@H](C(=O)N[C@@H](CCCCN)C(=O)N[C@@H](CC(C)C)C(=O)N[C@@H](C)C(=O)N[C@@H](CCC(N)=O)C(=O)N[C@@H](CCC(N)=O)C(=O)N[C@@H](CC(N)=O)C(=O)O)[C@@H](C)O)C(C)C [PF-511] (H-VMQSLYVKPPLILVTKLAQQN-OH; N-terminus and C-terminus assumed) |  |  |  | 50 (≈ 119 µg/mL) | 
3 | CC[C@H](C)[C@H](NC(=O)[C@H](CCC(=O)O)NC(=O)[C@@H]1CCCN1C(=O)[C@H](CCSC)NC(=O)[C@H](Cc1ccccc1)NC(=O)[C@@H](N)CO)C(=O)N[C@@H](CCC(N)=O)C(=O)N[C@@H](CCCCN)C(=O)N[C@@H](CC(N)=O)C(=O)N[C@H](C(=O)N[C@H](C(=O)N1CCC[C@H]1C(=O)N[C@H](C(=O)N[C@@H](CCC(N)=O)C(=O)N[C@@H](CCSC)C(=O)N[C@@H](CCCCN)C(=O)O)[C@@H](C)O)[C@@H](C)CC)[C@@H](C)O [PF-512] (H-SFMPEIQKNTIPTQMK-OH; N-terminus and C-terminus assumed) |  |  |  | 50 (≈ 94.7 µg/mL) | 
4 | CC(C)C[C@H](NC(=O)CNC(=O)[C@@H](N)CC(C)C)C(=O)N[C@H](C(=O)N[C@@H](C)C(=O)NCC(=O)N[C@H](C(=O)N[C@@H](C)C(=O)N[C@@H](Cc1ccc(O)cc1)C(=O)N[C@@H](C)C(=O)N[C@@H](C)C(=O)N[C@@H](CCC(N)=O)C(=O)N1CCC[C@H]1C(=O)N[C@H](C(=O)N[C@@H](CC(N)=O)C(=O)N[C@@H](CCC(N)=O)C(=O)N1CCC[C@H]1C(=O)N[C@H](C(=O)N[C@@H](CC(N)=O)C(=O)N[C@@H](CCC(N)=O)C(=O)N1CCC[C@H]1C(=O)N[C@H](C(=O)N[C@@H](CC(N)=O)C(=O)N[C@@H](CCC(N)=O)C(=O)N1CCC[C@H]1C(=O)N[C@H](C(=O)N[C@@H](CC(N)=O)C(=O)N[C@@H](CCC(N)=O)C(=O)N1CCC[C@H]1C(=O)N[C@H](C(=O)N[C@@H](CC(N)=O)C(=O)N[C@@H](CCC(N)=O)C(=O)N1CCC[C@H]1C(=O)N[C@H](C(=O)N[C@@H](CC(N)=O)C(=O)N[C@@H](CCC(N)=O)C(=O)N1CCC[C@H]1C(=O)N[C@@H](CCCNC(=N)N)C(=O)N[C@@H](Cc1c[nH]c2ccccc12)C(=O)O)[C@@H](C)O)[C@@H](C)O)[C@@H](C)O)[C@@H](C)O)[C@@H](C)O)[C@@H](C)O)C(C)C)[C@@H](C)O [PF-520] (H-LGLTAGVAYAAQPTNQPTNQPTNQPTNQPTNQPTNQPRW-OH; N-terminus and C-terminus assumed) |  |  |  | 50 (≈ 211 µg/mL) | 

Now from value to compound, other results behind:

Row | MIC (MRSA) [µM] | MIC (A. niger) [µM] | MIC (S. pneumoniae) [µM] | Compound | MIC (S. pneumoniae; [1]) [µM] | also measured
5 | 50 (≈ 44.5 µg/mL) |  |  | CC(C)[C@H](NC(=O)[C@H](C)NC(=O)[C@H](Cc1ccc(O)cc1)NC(=O)[C@@H](N)CC(N)=O)C(=O)N[C@H](C(=O)N[C@@H](CO)C(=O)N[C@@H](Cc1c[nH]cn1)C(=O)N[C@H](C(=O)O)[C@@H](C)O)C(C)C [PF-209] (H-NYAVVSHT-OH; N-terminus and C-terminus assumed) |  | 
6 |  | 25 (≈ 43 µg/mL) | 50 (≈ 85.9 µg/mL) | CC(C)C[C@H](NC(=O)[C@H](CCC(N)=O)NC(=O)[C@H](CO)NC(=O)[C@H](CCC(N)=O)NC(=O)[C@H](CC(C)C)NC(=O)[C@@H](N)CO)C(=O)NCC(=O)N1CCC[C@H]1C(=O)N[C@@H](CS)C(=O)N[C@@H](CC(C)C)C(=O)N[C@@H](Cc1c[nH]cn1)C(=O)N[C@@H](CC(=O)O)C(=O)N[C@@H](CCC(N)=O)C(=O)N[C@@H](CCCNC(=N)N)C(=O)N[C@@H](Cc1c[nH]cn1)C(=O)O [PF-448] (H-SLQSQLGPCLHDQRH-OH; N-terminus and C-terminus assumed) |  | 
7 |  |  | 50 (≈ 161 µg/mL) | CC(C)C[C@H](NC(=O)[C@H](CC(C)C)NC(=O)[C@H](Cc1c[nH]cn1)NC(=O)[C@H](CC(N)=O)NC(=O)[C@H](CCCCN)NC(=O)[C@H](CC(C)C)NC(=O)[C@H](CO)NC(=O)[C@H](CCCNC(=N)N)NC(=O)[C@H](CO)NC(=O)[C@H](C)NC(=O)[C@H](CCC(N)=O)NC(=O)[C@H](CCCCN)NC(=O)[C@H](CO)NC(=O)[C@H](C)NC(=O)[C@H](CCC(N)=O)NC(=O)[C@H](CCCCN)NC(=O)[C@H](CO)NC(=O)[C@H](C)NC(=O)[C@H](CCC(N)=O)NC(=O)[C@H](CCCCN)NC(=O)[C@H](CO)NC(=O)[C@H](C)NC(=O)[C@H](CCC(N)=O)NC(=O)[C@H](CCCCN)NC(=O)[C@H](CO)NC(=O)[C@H](C)NC(=O)[C@H](CCC(N)=O)NC(=O)[C@H](CCCCN)NC(=O)[C@H](CO)NC(=O)[C@H](C)N)C(=O)O [PF-523] (H-ASKQASKQASKQASKQASKQASRSLKNHLL-OH; N-terminus and C-terminus assumed) |  | 
8 |  | 50 (≈ 85.1 µg/mL) | 50 (≈ 85.1 µg/mL) | CSCC[C@H](NC(=O)[C@H](CCC(=O)O)NC(=O)[C@H](CO)NC(=O)[C@@H](N)CC(C)C)C(=O)N[C@@H](CCC(=O)O)C(=O)N[C@@H](CCCNC(=N)N)C(=O)N[C@@H](CCCNC(=N)N)C(=O)N[C@@H](CCCNC(=N)N)C(=O)N[C@@H](CC(C)C)C(=O)N[C@@H](CCCNC(=N)N)C(=O)N[C@@H](CCCCN)C(=O)N[C@@H](CCCNC(=N)N)C(=O)N[C@@H](C)C(=O)O [PF-529] (H-LSEMERRRLRKRA-OH; N-terminus and C-terminus assumed) |  | 
9 | 50 (≈ 152 µg/mL) |  |  | CC[C@H](C)[C@H](NC(=O)[C@H](CC(N)=O)NC(=O)[C@@H](NC(=O)[C@H](Cc1ccccc1)NC(=O)[C@H](CCC(=O)O)NC(=O)CNC(=O)[C@H](CCC(N)=O)NC(=O)[C@H](Cc1ccccc1)NC(=O)[C@@H](N)CCCCN)[C@@H](C)O)C(=O)NCC(=O)N[C@@H](CCC(N)=O)C(=O)N[C@@H](CO)C(=O)N[C@@H](Cc1ccc(O)cc1)C(=O)N[C@H](C(=O)N[C@H](C(=O)N[C@@H](CO)C(=O)N[C@@H](C)C(=O)N[C@@H](CO)C(=O)N[C@@H](Cc1c[nH]cn1)C(=O)N[C@@H](CCSC)C(=O)N[C@@H](CO)C(=O)N[C@H](C(=O)N[C@@H](CO)C(=O)N[C@@H](CC(C)C)C(=O)N[C@@H](CC(N)=O)C(=O)N[C@H](C(=O)NCC(=O)N[C@@H](CCCCN)C(=O)O)[C@@H](C)O)[C@@H](C)O)C(C)C)[C@@H](C)CC [PF-583] (H-KFQGEFTNIGQSYIVSASHMSTSLNTGK-OH; N-terminus and C-terminus assumed) |  | MIC (S. epidermidis): 50 µM (≈ 152 µg/mL)

Source: patent US20100184684A1, “ANTIBACTERIAL AND ANTIFUNGAL PEPTIDES” (C3 JIAN, INC., priority 2009, published 2010)
